pIC50: −log10 of the molar value.
Test system: 873145-292-R-J1-PDC complex spheroid viability
Test: Anticancer human tumor 873145-292-R-J1-PDC patient-derived renal clear cell carcinoma cell line growth inhibition [POLQ]
Conditions: for pIC50: curve of first compound; for viability, T/C: stronger effect = lower value; active = viability on the fitted dose curve at most 10% of control; inactive = the rest
Description: Multicellular complex tumor spheroid response to Polymerase (POL) inhibitors (novobiocin, ART-558, RP6685) in combination with a variety of drugs and investigational agents in selected tumor cell lines
The POL inhibitors (novobiocin, ART-558, and RP6685) were evaluated both individually and in combination with standard of care and investigational anticancer small molecules within a complex spheroid model of solid tumors. . Complex spheroids include a stromal component modeled by human endothelial cells (HUVEC) and fibroblasts modeled by human mesenchymal stem cells (MSCs). The concentration ranges selected for each drug and investigational agent were based upon clinically achievable concentrations if the clinical Cmax of the agent was known.
Compounds. The drugs and investigational agents: novobiocin (NSC847541), ART-558 (NSC835418), RP-6685 (NSC848927), peposertib (NSC802822), ceralasertib (NSC780249), elimusertib (NSC800525), camonsertib (NSC841442), AZD-1390 (NSC803789), olaparib (NSC753686), talazoparib (NSC767125), rucaparib (NSC756644), sotorasib (NSC818433), MRTX-1133 (NSC836407), SN-38 (NSC673596), topotecan (NSC609699), epotoside (NSC141540), doxorubicin (NSC123127), gemcitabine (NSC613327), 5-fluorouracil (NSC19893), paclitaxel (NSC125973), vemurafenib (NSC761431), MSA-2 (NSC828583), SN-011 (NSC837082), adavosertib (NSC754352), prexasertib (NSC758257), carboplatin (NSC241240) and oxaliplatin (NSC266046), were obtained from the National Cancer Institute (NCI) Developmental Therapeutics Program Chemical Repository (21). The FDA-approved anticancer drug set is available from the Developmental Therapeutics Program at https://dtp.cancer.gov/organization/dscb/obtaining/. […] The stock solutions were prepared in dimethyl sulfoxide (DMSO, Sigma-Aldrich, St. Louis, MO, cat. D2650), except for the platinum compounds which were prepared in saline (Quality Biological, Gaithersburg, MD, cat. 114-055-101), at 800-fold the tested concentration and stored at -70 degrees C prior to their use. All drugs and investigational agents were tested over a range starting from a high concentration at or near the clinical Cmax and decreasing in half-log increments. If the clinical Cmax for an agent had not been determined, the highest concentration tested was 10 microM, except for SN-38, which was tested at a high concentration of 1 microM.
Cell Culture. All cells were maintained in an incubator at 37 degrees C and 5% CO2 with 95% humidity. The PDC lines were cultured according to standard operating procedures established by the NCI PDMR (https://pdmr.cancer.gov). Table 3 of the manuscript, lists the cell lines along with the number of the three cell types plated to form the mct-spheroids and media for tumor cell growth. After thawing, all PDC lines, except 997537-175-T-J1-PDC and 415267-285-R-J2-PDC, were cultured in Matrigel-coated flasks prepared with a working solution of 1X Ham's F-12 nutrient mix, without supplementation (Thermo Fisher Scientific, cat. 11765054), 100 U/mL penicillin-streptomycin (Thermo Fisher Scientific, cat. 15140122), and 2.5% Matrigel (Corning Inc., Corning, NY, cat. 354248) for the first three passages. The two PDC lines 997537-175-T-J1-PDC and 415267-285-R-J2-PDC were cultured on uncoated flasks. The 857933-349-R-J2-PDC line was cultured in 6C/Colon 1B media containing advanced DMEM/F-12 (Thermo Fisher Scientific, cat. 12634028), 10 mM HEPES (Thermo Fisher Scientific, cat. 15630080), 1X GlutaMAX supplement (Thermo Fisher Scientific, cat. 35050061), 0.1 mg/mL primocin (InvivoGen, San Diego, CA, cat. ant-pm-2), 10% defined fetal bovine serum, heat inactivated (HyClone Laboratories Inc., Logan, UT, cat. SH30070.03HI), 50% L-WRN conditioned media (ATCC, cat. CRL-3276), 1.25 mM N-Acetyl-L-cysteine (Sigma-Aldrich, cat. A9165), 10 mM nicotinamide (Sigma-Aldrich, cat. N0636), 1X B-27 supplement (Thermo Fisher Scientific, cat. 17504044), 1X N-2 supplement (Thermo Fisher Scientific, cat. […]

[1] = second compound 0.0316 µM, first compound 0.0316 µM
[2] = second compound 0.0316 µM, first compound 0.1 µM
[3] = second compound 0.0316 µM, first compound 0.316 µM
[4] = second compound 0.0316 µM, first compound 1 µM
[5] = second compound 0.0316 µM, first compound 3.16 µM
[6] = second compound 0.0316 µM, first compound 10 µM
[7] = second compound 0.1 µM, first compound 0.0316 µM
[8] = second compound 0.1 µM, first compound 0.1 µM
[9] = second compound 0.1 µM, first compound 0.316 µM
[10] = second compound 0.1 µM, first compound 1 µM
[11] = second compound 0.1 µM, first compound 3.16 µM
[12] = second compound 0.1 µM, first compound 10 µM
[13] = second compound 0.316 µM, first compound 0.0316 µM
[14] = second compound 0.316 µM, first compound 0.1 µM
[15] = second compound 0.316 µM, first compound 0.316 µM
[16] = second compound 0.316 µM, first compound 1 µM
[17] = second compound 0.316 µM, first compound 3.16 µM
[18] = second compound 0.316 µM, first compound 10 µM
[19] = second compound 1 µM, first compound 0.0316 µM
[20] = second compound 1 µM, first compound 0.1 µM
[21] = second compound 1 µM, first compound 0.316 µM
[22] = second compound 1 µM, first compound 1 µM
[23] = second compound 1 µM, first compound 3.16 µM
[24] = second compound 1 µM, first compound 10 µM
[25] = second compound 3.16 µM, first compound 0.0316 µM
[26] = second compound 3.16 µM, first compound 0.1 µM
[27] = second compound 3.16 µM, first compound 0.316 µM
[28] = second compound 3.16 µM, first compound 1 µM
[29] = second compound 3.16 µM, first compound 3.16 µM
[30] = second compound 3.16 µM, first compound 10 µM
[31] = second compound 10 µM, first compound 0.0316 µM
[32] = second compound 10 µM, first compound 0.1 µM
[33] = second compound 10 µM, first compound 0.316 µM
[34] = second compound 10 µM, first compound 1 µM
[35] = second compound 10 µM, first compound 3.16 µM
[36] = second compound 10 µM, first compound 10 µM
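Also: spheroids exposed to compounds for 7 days before viability readout.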
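For viability, T/C in this document: luminescence signal used as surrogate for viable cell content.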

C#Cc1c(F)ccc2cc(O)cc(-c3ncc4c(N5CC6CCC(C5)N6)nc(OCC56CCCN5CC(F)C6)nc4c3F)c12 (stereo unspecified) + COC1C(OC(N)=O)C(O)C(Oc2ccc3c(O)c(NC(=O)c4ccc(O)c(CC=C(C)C)c4)c(=O)oc3c2C)OC1(C)C
< 5.00: pIC50 (second compound 0.0316 µM) | pIC50 (second compound 0.1 µM) | pIC50 (second compound 0.316 µM) | pIC50 (second compound 1 µM) | pIC50 (second compound 3.16 µM) | pIC50 (second compound 10 µM)
inactive: viability, T/C [1] 97.7% | viability, T/C [2] 92.7% | viability, T/C [3] 95.1% | viability, T/C [4] 83.9% | viability, T/C [5] 86.5% | viability, T/C [6] 89.6% | viability, T/C [7] 102% | viability, T/C [8] 97.7% | viability, T/C [9] 99% | viability, T/C [10] 75.7% | viability, T/C [11] 79.6% | viability, T/C [12] 82.7% | viability, T/C [13] 98% | viability, T/C [14] 85.7% | viability, T/C [15] 82.1% | viability, T/C [16] 77.8% | viability, T/C [17] 86.5% | viability, T/C [18] 80.4% | viability, T/C [19] 94.4% | viability, T/C [20] 97.1% | viability, T/C [21] 99.7% | viability, T/C [22] 76% | viability, T/C [23] 82.2% | viability, T/C [24] 88.3% | viability, T/C [25] 92.5% | viability, T/C [26] 92.9% | viability, T/C [27] 83.4% | viability, T/C [28] 79.3% | viability, T/C [29] 86.4% | viability, T/C [30] 84% | viability, T/C [31] 86.2% | viability, T/C [32] 95.5% | viability, T/C [33] 82.1% | viability, T/C [34] 86.3% | viability, T/C [35] 86.9% | viability, T/C [36] 82.1%

O=C(Nc1ccc(O)c(NS(=O)(=O)c2ccc(F)cc2)c1)c1ccc(-c2ccccc2)cc1 + COC1C(OC(N)=O)C(O)C(Oc2ccc3c(O)c(NC(=O)c4ccc(O)c(CC=C(C)C)c4)c(=O)oc3c2C)OC1(C)C
inactive: viability, T/C [1] 113% | viability, T/C [2] 99.8% | viability, T/C [3] 95.7% | viability, T/C [4] 101% | viability, T/C [5] 98.5% | viability, T/C [6] 101% | viability, T/C [7] 99.9% | viability, T/C [8] 106% | viability, T/C [9] 88.9% | viability, T/C [10] 94.8% | viability, T/C [11] 97.6% | viability, T/C [12] 101% | viability, T/C [13] 105% | viability, T/C [14] 92.7% | viability, T/C [15] 96.2% | viability, T/C [16] 98.6% | viability, T/C [17] 110% | viability, T/C [18] 98.1% | viability, T/C [19] 106% | viability, T/C [20] 103% | viability, T/C [21] 91.6% | viability, T/C [22] 97.2% | viability, T/C [23] 104% | viability, T/C [24] 91.1% | viability, T/C [25] 97.3% | viability, T/C [26] 94.8% | viability, T/C [27] 102% | viability, T/C [28] 92.9% | viability, T/C [29] 99.2% | viability, T/C [30] 109% | viability, T/C [31] 105% | viability, T/C [32] 95.2% | viability, T/C [33] 92.5% | viability, T/C [34] 100% | viability, T/C [35] 108% | viability, T/C [36] 108%
< 5.00: pIC50 (second compound 0.0316 µM) | pIC50 (second compound 0.1 µM) | pIC50 (second compound 0.316 µM) | pIC50 (second compound 1 µM) | pIC50 (second compound 3.16 µM) | pIC50 (second compound 10 µM)

COc1cc(C2c3cc4c(cc3C(OC3OC5COC(C)OC5C(O)C3O)C3COC(=O)C23)OCO4)cc(OC)c1O (stereo unspecified) + Cc1cccc(N(C)C(=O)C2C(O)CCN2c2nc(C)cc(C(F)(F)F)c2C#N)c1
5.05: pIC50 (second compound 1 µM)
5.06: pIC50 (second compound 0.316 µM)
< 5.00: pIC50 (second compound 0.1 µM) | pIC50 (second compound 10 µM)
5.02: pIC50 (second compound 0.0316 µM) | pIC50 (second compound 3.16 µM)
inactive: viability, T/C [1] 97.9% | viability, T/C [2] 98.3% | viability, T/C [3] 86.8% | viability, T/C [4] 81.4% | viability, T/C [5] 68.2% | viability, T/C [6] 48.9% | viability, T/C [7] 91.2% | viability, T/C [8] 94.5% | viability, T/C [9] 87.4% | viability, T/C [10] 90.1% | viability, T/C [11] 68.9% | viability, T/C [12] 53.5% | viability, T/C [13] 99.6% | viability, T/C [14] 97.1% | viability, T/C [15] 78.5% | viability, T/C [16] 86.8% | viability, T/C [17] 68.3% | viability, T/C [18] 46.2% | viability, T/C [19] 94.6% | viability, T/C [20] 96.7% | viability, T/C [21] 95% | viability, T/C [22] 87% | viability, T/C [23] 68.8% | viability, T/C [24] 48% | viability, T/C [25] 98.9% | viability, T/C [26] 82.5% | viability, T/C [27] 91.1% | viability, T/C [28] 85.8% | viability, T/C [29] 74% | viability, T/C [30] 48.4% | viability, T/C [31] 96.7% | viability, T/C [32] 85.3% | viability, T/C [33] 81.6% | viability, T/C [34] 72.3% | viability, T/C [35] 60% | viability, T/C [36] 57.1%

Source: PubChem BioAssay AID1963834 (Molecular Pharmacology Branch, DTP, NCI, 2024)
